The record followed here is ChEMBL document CHEMBL5113434, “Discovery of novel Thieno[2,3-d]imidazole derivatives as agonists of human STING for antitumor immunotherapy using systemic administration” (Eur J Med Chem, 2022).

pEC50, pIC50: −log10 of the molar value. Calls of active or inactive are those of the source. The calls are words filed in the database; no cut-off is given here. A value given as a limit tells only on which side of the number the result lay.

Series [1] deals with T1, Stimulator of interferon genes protein (Mus musculus) (UniProt Q3TBT3).
T1 sequence (whole entry): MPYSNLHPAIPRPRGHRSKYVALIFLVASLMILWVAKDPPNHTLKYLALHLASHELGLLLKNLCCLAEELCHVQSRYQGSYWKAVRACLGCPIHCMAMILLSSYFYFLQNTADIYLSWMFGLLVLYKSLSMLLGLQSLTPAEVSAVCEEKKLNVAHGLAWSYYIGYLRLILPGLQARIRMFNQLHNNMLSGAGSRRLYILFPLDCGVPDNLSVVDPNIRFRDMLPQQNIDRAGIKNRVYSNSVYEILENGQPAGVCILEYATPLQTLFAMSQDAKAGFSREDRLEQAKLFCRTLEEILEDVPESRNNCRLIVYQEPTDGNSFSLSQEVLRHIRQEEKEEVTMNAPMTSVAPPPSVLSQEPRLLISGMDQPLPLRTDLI
The series can be described thus: Agonist activity at STING in mouse RAW-Lucia ISG cells assessed as fold change in ISG activation at 50 uM incubated for 24 hrs by Quanti-luc reagent based assay relative to control. The series is classed as cell-based. The note with it: filed as agonist.

Series [2] concerns the target T2, Stimulator of interferon genes protein (Homo sapiens, UniProt Q86WV6). The series can be described thus: Agonist activity at STING in human THP1-Dual cells assessed as fold change in ISG activation at 10 uM incubated for 24 hrs by Quanti-luc reagent based assay relative to control. The series is classed as cell-based. The note with it: filed as agonist.
The target in series [3] is T3, Stimulator of interferon genes protein (Mus musculus, UniProt Q3TBT3).
T3 sequence (Q3TBT3 whole entry): T1 sequence (whole entry)
The series can be described thus: Agonist activity at STING in mouse RAW-Lucia ISG cells assessed as ISG activation incubated for 24 hrs by Quanti-luc reagent based assay. The series is classed as cell-based.

Series [4] has as its target T2, Stimulator of interferon genes protein. The series can be described thus: Agonist activity at STING in human THP1-Dual cells assessed as ISG activation incubated for 24 hrs by Quanti-luc reagent based assay. The series is classed as cell-based.
A short description of series [5]: Observed AUC infinity in BALB/c mouse at 1 mg/kg, iv measured up to 24 hrs by UPLC-MS/MS analysis. The note with it: in vivo. The arrangement: dose 1 mg/kg, time < 24 hrs, route iv. The series is classed as ADME, organism-based.
Series [6] can be described thus: Observed volume of distribution at steady state in BALB/c mouse at 1 mg/kg, iv measured up to 24 hrs by UPLC-MS/MS analysis. The series is classed as ADME, organism-based. The note with it: in vivo, read-out: Vdss.
Series [7] can be described thus: Half life in BALB/c mouse at 1 mg/kg, iv measured up to 24 hrs by UPLC-MS/MS analysis. The series is classed as ADME, organism-based. The note with it: in vivo.
The nature of series [8]: Observed clearance in BALB/c mouse at 1 mg/kg, iv measured up to 24 hrs by UPLC-MS/MS analysis. The series is classed as ADME, organism-based. As to conditions: in vivo.
A short description of series [9]: AUClast in BALB/c mouse at 1 mg/kg, iv measured up to 24 hrs by UPLC-MS/MS analysis. The arrangement: time < 24 hrs, dose 1 mg/kg, route iv. As to conditions: in vivo. The series is classed as ADME, organism-based.
Series [10] concerns the target T2, Stimulator of interferon genes protein. In words: Activation of STING pathway in human THP1-Dual cells assessed as increase in IP-10 expression level at 0.1 uM measured for 24 hrs by chemiluminescence based analysis. The note with it: filed as activator. The series is classed as cell-based.
Series [11] can be described thus: Agonist activity at human STING R232H mutant.
For series [12], the target named is T2, Stimulator of interferon genes protein. The series can be described thus: Activation of STING pathway in human 293T-Dual hSTING-H232 cells assessed as increase in ISG expression level measured for 24 hrs by SEAP reporter based Quanti-luc assay. The series is classed as cell-based. The note with it: filed as activator, dose 0.01-1 µM, DDE = dose-dependent effect.

Series [13] shares this target. In words: Activation of STING pathway in human 293T-Dual hSTING-H232 cells assessed as increase in IFNbeta expression level measured for 24 hrs by SEAP reporter based Quanti-luc assay. As to conditions: filed as activator, dose 0.01-1 µM, DDE = dose-dependent effect. The series is classed as cell-based.
Series [14] has the same target. The series can be described thus: Activation of STING pathway in human THP1-Dual cells assessed as increase in IP-10 expression level at 0.01 to 1 uM measured for 24 hrs by chemiluminescence based analysis. The series is classed as cell-based. The note with it: filed as activator, dose 0.01-1 µM.
For series [15] the target is unchanged. In words: Activation of STING pathway in human THP1-Dual cells assessed as increase in IFNbeta expression level at 0.01 to 1 uM measured for 24 hrs by chemiluminescence based analysis. The series is classed as cell-based. As to conditions: filed as activator, dose 0.01-1 µM.
The target is the same in series [16]. In words: Activation of STING pathway in human THP1-Dual cells assessed as increase in IFNbeta expression level at 0.1 uM measured for 24 hrs by chemiluminescence based analysis. The series is classed as cell-based. The note with it: filed as activator.
The target is the same in series [17]. In words: Agonist activity at STING (unknown origin).
The target is the same in series [18]. The series can be described thus: Agonist activity at STING in human THP-1 cells. The series is classed as cell-based.
The target is the same in series [19]. In words: Agonist activity at wild type human STING in HEK cells. The series is classed as cell-based.
Series [20] shares this target. The series can be described thus: Inhibition of human wild type STING.

T2 sequence (Q86WV6 whole entry): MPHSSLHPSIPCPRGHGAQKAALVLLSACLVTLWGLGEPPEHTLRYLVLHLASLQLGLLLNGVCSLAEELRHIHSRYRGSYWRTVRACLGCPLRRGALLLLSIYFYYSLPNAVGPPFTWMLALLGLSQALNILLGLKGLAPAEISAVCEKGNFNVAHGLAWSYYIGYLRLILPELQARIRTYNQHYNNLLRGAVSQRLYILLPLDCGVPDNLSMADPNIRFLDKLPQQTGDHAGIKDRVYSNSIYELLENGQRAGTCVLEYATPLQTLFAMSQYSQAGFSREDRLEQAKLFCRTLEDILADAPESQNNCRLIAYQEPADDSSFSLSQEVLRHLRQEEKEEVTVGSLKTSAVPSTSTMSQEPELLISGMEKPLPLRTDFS

On to `CCn1nc(C)cc1C(=O)Nc1nc2cc(NC(C)=O)ccc2n1CCCCn1c(NC(=O)c2cc(C)nn2CC)nc2cc(C(N)=O)cc(OCCCN3CCOCC3)c21`, for which the fold change (FC) in series [1] worked out at 1.18; in series [2], 2.32.
Consider `CCn1nc(C)cc1C(=O)Nc1nc2cc(C(N)=O)sc2n1C/C=C/Cn1c(NC(=O)c2cc(C)nn2CC)nc2cc(C(N)=O)cc(OC(C)C)c21`, for which the negative-log EC50 (pEC50) in series [3] was 4.20; in series [4], 5.24. Moreover, the figures for the fold change (FC) in series [1] and in series [2] were 13.5 and 60.4, respectively.
The corresponding values for `CCn1nc(C)cc1C(=O)Nc1nc2cc(C(N)=O)sc2n1C/C=C/Cn1c(NC(=O)c2cc(C)nn2CC)nc2cc(C(N)=O)cc(OCC3CC3)c21` are < 4.00, 6.55, 12.6 and 141.
`CCn1nc(C)cc1C(=O)Nc1nc2cc(C(N)=O)cc(OC)c2n1C/C=C/Cn1c(NC(=O)c2cc(C)nn2CC)nc2cc(C(N)=O)cc(OCCCN3CCOCC3)c21`: the AUC(0-inf) in series [5] was determined as 666 ng·h/mL. Besides, in [6], the Vd amounted to 0.965 L/kg. In series [7], this molecule showed a half-life of 1.14 h. For the same molecule, the clearance in series [8] stood at 26 mL/min/kg. Moreover, the AUC(0-t) at 24 h in series [9] turned out to be 657 ng·h/mL.
For the molecule `CCn1nc(C)cc1C(=O)Nc1nc2cc(NC(=O)CN)ccc2n1CCCCn1c(NC(=O)c2cc(C)nn2CC)nc2cc(C(N)=O)cc(OCCCN3CCOCC3)c21`, the fold change (FC) in [1] amounted to 1.39; in series [2], 11.
Turning to `CCn1nc(C)cc1C(=O)/N=c1\[nH]c2cc(C(N)=O)cc(OC)c2n1C/C=C/Cn1/c(=N/C(=O)c2cc(C)nn2CC)[nH]c2cc(C(N)=O)cc(OCCCN3CCOCC3)c21`, the result in series [10], in series [14], in [15] and in [16] was Active. Besides, the pEC50 in [11] is 6.70. For the same molecule, the Activity entry in series [12] and in series [13] was “Dde” throughout.
As for `CCn1nc(C)cc1C(=O)Nc1nc2cc(C(N)=O)sc2n1CCCCn1c(NC(=O)c2cc(C)nn2CC)nc2cc(C(N)=O)sc21`, the results for the fold change (FC) in [1] and in series [2] were 2.63 and 1.15, respectively.
Regarding `CCn1nc(C)cc1C(=O)Nc1nc2cc(C(N)=O)sc2n1C/C=C/Cn1c(NC(=O)c2cc(C)nn2CC)nc2cc(C(N)=O)cc(O[C@H]3CCOC3)c21`, the values for the negative logarithm of the EC50 (pEC50) in [3] and in [4] were < 4.00 and 5.73, respectively. The results for the fold change (FC) in [1] and in series [2] were 1.5 and 80.3, respectively.
As for `O=C(c1ccc([N+](=O)[O-])cc1)N1CCc2cc(S(=O)(=O)N3C[C@@H](c4ccccc4)NC3=O)ccc21`, the pEC50 in series [17] is 6.74.
On the same count and under the same terms, next, `Nc1ncnc2c1ncn2[C@@H]1O[C@@H]2COP(=O)(O)O[C@H]3[C@@H](O)[C@H](n4cnc5c(N)ncnc54)O[C@@H]3COP(=O)(O)O[C@H]2[C@H]1O`: 7.29.
Regarding `O=C(Nc1cc(F)c(F)cc1C(=O)O)c1ccc(N2C=CNC2)nn1`, the pEC50 in series [18] is 5.68.
Turning to `O=C(NCc1ccco1)c1ccc2c(c1)N(Cc1c(F)cccc1Cl)C(=O)CS2`, in [19], the pEC50 is 5.60.
With `CCn1nc(C)cc1C(=O)Nc1nc2cc(C(N)=O)sc2n1C/C=C/Cn1c(NC(=O)c2cc(C)nn2CC)nc2cc(C(N)=O)cc(OC3COC3)c21`, the negative logarithm of the EC50 (pEC50) in [3] is < 4.00; in [4], 5.81. The figures for the fold change (FC) in [1] and in series [2] were 10.2 and 49.2, respectively.
`CCn1nc(C)cc1C(=O)Nc1nc2sc(C(N)=O)cc2n1CCCCn1c(NC(=O)c2cc(C)nn2CC)nc2cc(C(N)=O)cc(OCCCN3CCOCC3)c21`: the fold change (FC) worked out at 1 in series [1] and 1.15 in series [2].
`CCn1nc(C)cc1C(=O)/N=c1\[nH]c2cc(C(N)=O)ccc2n1C[C@@H](O)c1ccccc1` had a pIC50 in series [20] of 5.85.
On to `CCn1nc(C)cc1C(=O)Nc1nc2cc(C(N)=O)sc2n1CCCCn1c(NC(=O)c2cc(C)nn2CC)nc2cc(C(N)=O)cc(OCCCN3CCOCC3)c21`, for which the fold change (FC) in [1] is 0.64; in series [2], 8.42.

One may read the pEC50 as the EC50 on a negative log10 scale, so that one unit is a factor of ten. By AUC(0-inf) is commonly meant total exposure, with the tail of the curve extrapolated. A low value points to less exposure. The term half-life denotes how long it takes for the measured level to halve. High values mean slow loss, low ones fast loss. One may read the clearance as the volume of plasma or blood freed of the substance per unit of time. A word on the AUC(0-t): it is the area under the concentration-time curve up to a stated or last time point. A higher AUC(0-t) goes with high exposure. What is called pIC50 is the negative decadic logarithm of the IC50, by convention in mol/L. The low end stands for a large IC50, the high end for a small IC50.
